Experimental data taken from US9663507B1, “Crystallisation of thiamine hydrochloride” (Topchem Pharmaceuticals Limited, priority 2016, dated 2017).
Where a name gives a salt, the structure may show the parent alone. Read-outs that look alike come from different tables or passages of the source. One block for each molecule: values may come before it.

Assays:
[1] = exposure to humidity, cited from earlier work
[2] = for Related Substances: Chlorothiamine (Impurity C) / Related Substances: Thiamine sulfate ester (Impurity A) / Related Substances: Desmethylthiamine (Impurity B) / Related Substances: Total Impurities: EP 8.6 HPLC Method; for Related Substances: Chlorothiamine (Impurity C) / Related Substances: Thiamine sulfate ester (Impurity A): limit NMT 0.15%; for Related Substances: Desmethylthiamine (Impurity B): limit NMT 0.3%; for Related Substances: Total Impurities: limit NMT 0.5%; for Assay: limit 98.0%-102.0%; for Sulfates: limit EP 8.6 NMT 300 ppm; for Solution S: limit EP 8.6 Practically Clear and Odorless; for Heavy Metals / Appearance: limit Meets EP 8.6; for ID: Chloride / ID: FTIR / Limit of Nitrate: limit Meets USP 39; for Absorbance of Solution: limit USP 39 NMT 0.025 Abs; for Residue on Ignition: limit USP 39 NMT 0.2%; for Water: limit USP 39 NMT 5.0%; for pH: limit USP 39 pH 2.7-3.4
[3] = cited from earlier work
[4] = 36 Months, listed as T111116, hydrochloride monohydrate
[5] = 36 Months, listed as T111201, hydrochloride monohydrate
[6] = 36 Months, listed as T111202, hydrochloride monohydrate
[7] = Time 0, listed as T111116, hydrochloride monohydrate
[8] = Time 0, listed as T111201, hydrochloride monohydrate
[9] = Time 0, listed as T111202, hydrochloride monohydrate

SMILES: Cc1ncc(C[n+]2csc(CCO)c2C)c(N)n1 [Example 1, Thiamine Hydrochloride Hemihydrate]
- Hygroscopicity ([1]; Hydrochloride Hemihydrate): less hygroscopic

- Related Substances: Chlorothiamine (Impurity C) ([2]; 36 Months): <0.05%
- Related Substances: Thiamine sulfate ester (Impurity A) ([2]; 36 Months): 0.07%
- Related Substances: Desmethylthiamine (Impurity B) [2, 4]: 0.07%
- Related Substances: Desmethylthiamine (Impurity B) [2, 5]: 0.07%
- Related Substances: Desmethylthiamine (Impurity B) [2, 6]: 0.06%
- Related Substances: Total Impurities [2, 4]: 0.13%
- Related Substances: Total Impurities [2, 5]: 0.14%
- Related Substances: Total Impurities [2, 6]: 0.13%
- Assay [2, 4]: 99.8%
- Assay [2, 5]: 99.6%
- Assay [2, 6]: 99.1%
- Sulfates ([2]; 36 Months): Complies
- Solution S ([2]; 36 Months): Complies
- Heavy Metals ([2]; 36 Months): Complies
- Appearance ([2]; 36 Months, sealed foil lined polypropylene bags): Complies
- ID: Chloride ([2]; 36 Months): Complies
- ID: FTIR ([2]; 36 Months): Complies
- Limit of Nitrate ([2]; 36 Months): Complies
- Absorbance of Solution [2, 4]: 0.004 Abs
- Absorbance of Solution [2, 5]: 0.013 Abs
- Absorbance of Solution [2, 6]: 0.007 Abs
- Residue on Ignition ([2]; 36 Months): 0.0%
- Water [2, 4]: 3.7%
- Water [2, 5]: 2.7%
- Water [2, 6]: 4.0%
- pH [2, 4]: pH 2.9
- pH [2, 5]: pH 3.0
- pH [2, 6]: pH 3.1
- Related Substances: Chlorothiamine (Impurity C) ([2]; Time 0): <0.05%
- Related Substances: Thiamine sulfate ester (Impurity A) [2, 7]: <0.05%
- Related Substances: Thiamine sulfate ester (Impurity A) [2, 8]: 0.07%
- Related Substances: Thiamine sulfate ester (Impurity A) [2, 9]: 0.06%
- Related Substances: Desmethylthiamine (Impurity B) [2, 7]: <0.05%
- Related Substances: Desmethylthiamine (Impurity B) [2, 8]: 0.07%
- Related Substances: Desmethylthiamine (Impurity B) [2, 9]: 0.06%
- Related Substances: Total Impurities [2, 7]: Complies
- Related Substances: Total Impurities [2, 8]: 0.4%
- Related Substances: Total Impurities [2, 9]: 0.12%
- Assay [2, 7]: 99.0%
- Assay [2, 8]: 98.6%
- Assay [2, 9]: 99.2%
- Sulfates ([2]; Time 0): Complies
- Solution S ([2]; Time 0): Complies
- Appearance ([2]; Time 0): Complies
- Heavy Metals ([2]; Time 0): Complies
- ID: Chloride ([2]; Time 0): Complies
- ID: FTIR ([2]; Time 0): Complies
- Limit of Nitrate ([2]; Time 0): Complies
- Absorbance of Solution [2, 7]: 0.005 Abs
- Absorbance of Solution [2, 8]: 0.008 Abs
- Absorbance of Solution ([2]; Time 0, unit printed as %): 0.007%
- Residue on Ignition ([2]; Time 0): 0.0%
- Water [2, 7]: 3.2%
- Water [2, 8]: 2.0%
- Water [2, 9]: 3.3%
- pH [2, 7]: pH 3.3
- pH [2, 8]: pH 3.2
- pH [2, 9]: pH 3.2
- Storage stability ([2]; protected from moisture, […], USP or EP testing): stability up to three years
SMILES: Cc1ncc(C[n+]2csc(CCO)c2C)c(N)n1 [Thiamine hydrochloride monohydrate]
- Hygroscopicity ([1]; hydrochloride monohydrate): hygroscopic

SMILES: Cc1ncc(C[n+]2csc(CCO)c2C)c(N)n1 [Thiamine hydrochloride]
- Solubility in water [3]: high solubility in water

SMILES: Cc1ncc(C[n+]2csc(CCO)c2C)c(N)n1 [anhydrous form, Thiamine hydrochloride]
- Hygroscopicity ([1]; hydrochloride): readily absorbs moisture to form the monohydrate and hemihydrate
